The text below walks through data of US11230555B2, “Bicyclic RORγ modulators” (Escalier Biosciences B.V., priority 2018, dated 2022).

pIC50: −log10 of the molar value.

The target of this assay is T1, RORγt (Homo sapiens, UniProt P51449).
T1 construct: purchased reporter-cell kit
T1 sequence (P51449 269-508 limits assumed): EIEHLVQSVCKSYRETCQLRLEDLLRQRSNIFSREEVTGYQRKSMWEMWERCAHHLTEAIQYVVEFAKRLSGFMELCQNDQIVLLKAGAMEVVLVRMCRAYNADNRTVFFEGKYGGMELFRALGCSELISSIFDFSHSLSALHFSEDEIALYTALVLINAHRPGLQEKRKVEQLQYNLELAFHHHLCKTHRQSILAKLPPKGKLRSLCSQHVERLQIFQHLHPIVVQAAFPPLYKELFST
Put plainly: Gal4 ligand binding assay (RORγt Gal fusion reporter assay). The note with it: inverse agonists, luciferase reporter, 24h. The format is cell-based. Here is the method:
Compounds of the present invention were tested in a human RORγ ligand binding assay using a commercially available cell based ligand binding reporter assay in 96-well format (Cat #IB04001, INDIGO Biosciences, State College, Pa.). The N-terminal DNA binding domains (DBD) of the native RORγ and RORγt receptors have been substituted with that of the yeast GAL4-DBD and stably transfected in […] cells that also stably express luciferase under the regulation by upstream activation sequence of yeast Gal4. These cells constitutively express high level RORγ activity due to binding of endogenous co-factors. Both agonist and inverse agonist activity can be detected. The assay was performed according to kit manufacturer's instructions as follows. 10 mM compound stocks were diluted serially 1:3 with DMSO and further diluted with provided media to generate 10 titration points from 60 μM to 3 nM. These treatment conditions were added to the plates as 2× media in 100 μL volume. Each plate includes a positive control with 10 titration points as well as 6negative control wells with vehicle only, with final DMSO concentration of 0.2%. RORγ reporter cells were rapidly thawed and added to the plates in 100 μL volume. The plates were incubated for 24h in a 37° C. humidified 5% CO2incubator. Media was removed before the addition of room temperature luciferous detection substrate. After 5 minute incubation, relative light units (RLUs) were quantified using a plate reading luminometer. Data was normalized to positive control wells with only […]. Before establishing internal controls, ursolic acid was used as control.
Background: A reporter such as luciferase makes a cellular process visible.
For the compound `CCc1cc(CN2CC3CCC(C2)N3S(C)(=O)=O)ccc1-c1ccc(C(O)(C(F)(F)F)C(F)(F)F)cc1CC` [Example 25, 2-(2,2′-diethyl-4′-((8-(methylsulfonyl)-3,8-diazabicyclo[3.2.1]octan-3-yl)methyl)-[1,1′-biphenyl]-4-yl)-1,1,1,3,3,3-hexafluoropropan-2-ol], the negative-log IC50 (pIC50) is more than 7.30.
As for `CCc1cc(C(O)(C(F)(F)F)C(F)(F)F)ccc1-c1ccc(CN2CC3CCC(C2)N3S(C)(=O)=O)cc1C` [Example 26, 2-(2-ethyl-2′-methyl-4′-((8-(methylsulfonyl)-3,8-diazabicyclo[3.2.1]octan-3-yl)methyl)-[1,1′-biphenyl]-4-yl)-1,1,1,3,3,3-hexafluoropropan-2-ol], the figure is more than 7.30; as for `CCc1cc(CN2CC3CCC(C2)N3S(C)(=O)=O)ccc1-c1ccc(C(O)(C(F)(F)F)C(F)(F)F)cc1Cl` [Example 27, 2-(2-chloro-2′-ethyl-4′-((8-(methylsulfonyl)-3,8-diazabicyclo[3.2.1]octan-3-yl)methyl)-[1,1′-biphenyl]-4-yl)-1,1,1,3,3,3-hexafluoropropan-2-ol], more than 7.30.
In the case of `CCc1c(-c2ccc(C(O)(C(F)(F)F)C(F)(F)F)cc2C)cc(F)c(CN2CC3CCC(C2)N3S(C)(=O)=O)c1F` [Example 28, 2-(2′-ethyl-3′,5′-difluoro-2-methyl-4′-((8-(methylsulfonyl)-3,8-diazabicyclo[3.2.1]octan-3-yl)methyl)-[1,1′-biphenyl]-4-yl)-1,1,1,3,3,3-hexafluoropropan-2-ol], the pIC50 was more than 7.30.
As for `CCc1cc(CN2CC3CCC(C2)N3S(C)(=O)=O)c(F)c(F)c1-c1ccc(C(O)(C(F)(F)F)C(F)(F)F)cc1C` [Example 29, 2-(6′-ethyl-2′,3′-difluoro-2-methyl-4′-((8-(methylsulfonyl)-3,8-diazabicyclo[3.2.1]octan-3-yl)methyl)-[1,1′-biphenyl]-4-yl)-1,1,1,3,3,3-hexafluoropropan-2-ol], the pIC50 was more than 7.30.
For `CCc1c(F)c(CN2CC3CCC(C2)N3S(C)(=O)=O)cc(F)c1-c1ccc(C(O)(C(F)(F)F)C(F)(F)F)cc1C` [Example 30, 2-(2′-ethyl-3′,6′-difluoro-2-methyl-4′-((8-(methylsulfonyl)-3,8-diazabicyclo[3.2.1]octan-3-yl)methyl)-[1,1′-biphenyl]-4-yl)-1,1,1,3,3,3-hexafluoropropan-2-ol], the negative logarithm of the IC50 (pIC50) is more than 7.30.
As for `CCc1cc(CN2CC3CCC(C2)N3S(C)(=O)=O)ccc1-c1ccc(C(O)(C(F)(F)F)C(F)(F)F)cc1C(N)=O` [Example 31, 2′-ethyl-4-(1,1,1,3,3,3-hexafluoro-2-hydroxypropan-2-yl)-4′-((8-(methylsulfonyl)-3,8-diazabicyclo[3.2.1]octan-3-yl)methyl)-[1,1′-biphenyl]-2-carboxamide], the figure is less than 6.60; as for `CCc1cc(CN2CC3CCC(C2)N3S(C)(=O)=O)ccc1-c1ccc(C(O)(C(F)(F)F)C(F)(F)F)cn1` [Example 32, 2-(6-(2-ethyl-4-((8-(methylsulfonyl)-3,8-diazabicyclo[3.2.1]octan-3-yl)methyl)phenyl)pyridin-3-yl)-1,1,1,3,3,3-hexafluoropropan-2-ol], 6.60 to 7.30.
For the compound `CCc1cc(CN2CC3CCC(C2)N3S(C)(=O)=O)cnc1-c1ccc(C(O)(C(F)(F)F)C(F)(F)F)cc1C` [Example 33, 2-(4-(3-ethyl-5-((8-(methylsulfonyl)-3,8-diazabicyclo[3.2.1]octan-3-yl)methyl)pyridin-2-yl)-3-methylphenyl)-1,1,1,3,3,3-hexafluoropropan-2-ol], the pIC50 is less than 6.60.
Compound `CCc1cc(CN2CC3CCC(C2)N3S(C)(=O)=O)ccc1-c1ccc(C(O)(C(F)(F)F)C(F)(F)F)cc1C` [Example 34, 2-(2′-ethyl-2-methyl-4′-((8-(methylsulfonyl)-3,8-diazabicyclo[3.2.1]octan-3-yl)methyl)-[1,1′-biphenyl]-4-yl)-1,1,1,3,3,3-hexafluoropropan-2-ol] showed a pIC50 of more than 7.30.
For `Cc1cc(C(O)(C(F)(F)F)C(F)(F)F)ccc1-c1ccc(CN2CC3CCC(C2)N3S(C)(=O)=O)cc1C(C)C` [Example 35, 1,1,1,3,3,3-hexafluoro-2-(2′-isopropyl-2-methyl-4′-((8-(methylsulfonyl)-3,8-diazabicyclo[3.2.1]octan-3-yl)methyl)-[1,1′-biphenyl]-4-yl)propan-2-ol], the pIC50 is 6.60 to 7.30.
Regarding `Cc1cc(CN2CC3CCC(C2)N3c2noc(C(C)(C)C)n2)ccc1-c1ccc(C(O)(C(F)(F)F)C(F)(F)F)cc1` [Example 36, 2-(4′-((8-(5-(tert-butyl)-1,2,4-oxadiazol-3-yl)-3,8-diazabicyclo[3.2.1]octan-3-yl)methyl)-2′-methyl-[1,1′-biphenyl]-4-yl)-1,1,1,3,3,3-hexafluoropropan-2-ol], the pIC50 was less than 6.60.
Turning to `CCc1cc(CN2CC3CCC2CN3S(C)(=O)=O)ccc1-c1ccc(C(O)(C(F)(F)F)C(F)(F)F)cc1` (centres unmarked) [Example 37, 2-(2′-ethyl-4′-((5-(methylsulfonyl)-2,5-diazabicyclo[2.2.2]octan-2-yl)methyl)-[1,1′-biphenyl]-4-yl)-1,1,1,3,3,3-hexafluoropropan-2-ol], the pIC50 was 6.60 to 7.30.
Turning to `CCc1cc(CN2CC3CC2CN3S(C)(=O)=O)ccc1-c1ccc(C(O)(C(F)(F)F)C(F)(F)F)cc1` (centres unmarked) [Example 38, 2-(2′-ethyl-4′-((5-(methylsulfonyl)-2,5-diazabicyclo[2.2.1]heptan-2-yl)methyl)-[1,1′-biphenyl]-4-yl)-1,1,1,3,3,3-hexafluoropropan-2-ol], the pIC50 is more than 7.30.
`CCc1cc(CN2CC3CCC(C2)N3C(C)=O)ccc1-c1ccc(C(O)(C(F)(F)F)C(F)(F)F)cc1` [Example 39, 1-(3-((2-ethyl-4′-(1,1,1,3,3,3-hexafluoro-2-hydroxypropan-2-yl)-[1,1′-biphenyl]-4-yl)methyl)-3,8-diazabicyclo[3.2.1]octan-8-yl)ethan-1-one] gave a negative-log IC50 (pIC50) of more than 7.30.
The compound `CS(=O)(=O)N1C2CCC1CN(Cc1ccc(-c3ccc(C(O)(C(F)(F)F)C(F)(F)F)cc3)c(Br)c1)C2` [Example 40, 2-(2′-bromo-4′-((8-(methylsulfonyl)-3,8-diazabicyclo[3.2.1]octan-3-yl)methyl)-[1,1′-biphenyl]-4-yl)-1,1,1,3,3,3-hexafluoropropan-2-ol] gave a negative-log IC50 (pIC50) of 6.60 to 7.30.
Consider `OC(c1ccc(-c2ccc(CN3CC4CCC(C3)N4Cc3ccncc3)cc2Br)cc1)(C(F)(F)F)C(F)(F)F` [Example 41, 2-(2′-bromo-4′-((8-(pyridin-4-ylmethyl)-3,8-diazabicyclo[3.2.1]octan-3-yl)methyl)-[1,1′-biphenyl]-4-yl)-1,1,1,3,3,3-hexafluoropropan-2-ol], for which the negative logarithm of the IC50 (pIC50) is more than 7.30.
As for `CCN1C2CCC1CN(Cc1ccc(-c3ccc(C(O)(C(F)(F)F)C(F)(F)F)cc3)c(C)c1)C2` [Example 42, 2-(4′-((8-ethyl-3,8-diazabicyclo[3.2.1]octan-3-yl)methyl)-2′-methyl-[1,1′-biphenyl]-4-yl)-1,1,1,3,3,3-hexafluoropropan-2-ol], the figure is less than 6.60; as for `Cc1cc(CN2CC3CCC(C2)N3C(=O)C2CCOCC2)ccc1-c1ccc(C(O)(C(F)(F)F)C(F)(F)F)cc1` [Example 43, (3-((4′-(1,1,1,3,3,3-hexafluoro-2-hydroxypropan-2-yl)-2-methyl-[1,1′-biphenyl]-4-yl)methyl)-3,8-diazabicyclo[3.2.1]octan-8-yl)(tetrahydro-2H-pyran-4-yl)methanone], 6.60 to 7.30; as for `CCOC(=O)N1C2CCC1CN(Cc1ccc(-c3ccc(C(O)(C(F)(F)F)C(F)(F)F)cc3)c(C)c1)C2` [Example 44, ethyl 3-((4′-(1,1,1,3,3,3-hexafluoro-2-hydroxypropan-2-yl)-2-methyl-[1,1′-biphenyl]-4-yl)methyl)-3,8-diazabicyclo[3.2.1]octane-8-carboxylate], less than 6.60.
Consider `COCCC(=O)N1C2CCC1CN(Cc1ccc(-c3ccc(C(O)(C(F)(F)F)C(F)(F)F)cc3)c(C)c1)C2` [Example 45, 1-(3-((4′-(1,1,1,3,3,3-hexafluoro-2-hydroxypropan-2-yl)-2-methyl-[1,1′-biphenyl]-4-yl)methyl)-3,8-diazabicyclo[3.2.1]octan-8-yl)-3-methoxypropan-1-one], for which the pIC50 was less than 6.60.
Consider `Cc1cc(CN2CC3CCC(C2)C3NS(C)(=O)=O)ccc1-c1ccc(C(O)(C(F)(F)F)C(F)(F)F)cc1` (centres unmarked) [Example 46, N-(3-((4′-(1,1,1,3,3,3-hexafluoro-2-hydroxypropan-2-yl)-2-methyl-[1,1′-biphenyl]-4-yl)methyl)-3-azabicyclo[3.2.1]octan-8-yl)methanesulfonamide], for which the pIC50 was less than 6.60.
`Cc1cc(CN2CC3CCC(C2)N3Cc2ccncn2)ccc1-c1ccc(C(O)(C(F)(F)F)C(F)(F)F)cc1` [Example 47, 1,1,1,3,3,3-hexafluoro-2-(2′-methyl-4′-((8-(pyrimidin-4-ylmethyl)-3,8-diazabicyclo[3.2.1]octan-3-yl)methyl)-[1,1′-biphenyl]-4-yl)propan-2-ol] had a negative-log IC50 (pIC50) of more than 7.30.

A word on the pIC50: it is the IC50 on a negative log10 scale, so that one unit is a factor of ten. Higher therefore signals a low IC50.
